Test results: ChEMBL document CHEMBL4387772, “Design, synthesis and biological evaluation of hypolipidemic compounds based on BRD4 inhibitor RVX-208” (Bioorg Med Chem Lett, 2019)

What was measured:
[1] = target: Bromodomain-containing protein 4 (Homo sapiens, UniProt O60885); assay: Inhibition of BRD4 bromodomain 2 (unknown origin) incubated for 30 mins by ELISA
[2] = tested on: HepG2; assay: Up regulation of ApoA1 mRNA expression in human HepG2 cells at 100 uM by RT-PCR analysis relative to control; type: functional
[3] = tested on: Rattus norvegicus; assay: Antihyperlipidemic activity in Sprague-Dawley rat assessed as increase in HDL-C level at 30 mg/kg, po administered twice daily for 1 week measured 2 hrs post-last dose by HPLC analysis relative to control; type: functional
[4] = tested on: Rattus norvegicus; assay: Antihyperlipidemic activity in Sprague-Dawley rat assessed as decrease in triglyceride level at 30 mg/kg, po administered twice daily for 1 week measured 2 hrs post-last dose by GPO-PAP analysis relative to control; type: functional; parameters: scale not given: the % may be the effect or the level left
[5] = tested on: Rattus norvegicus; assay: Antihyperlipidemic activity in po dosed Sprague-Dawley rat assessed as increase in HDL-C level administered twice daily for 1 week measured 2 hrs post-last dose by HPLC analysis relative to control; type: functional
[6] = tested on: Rattus norvegicus; assay: Antihyperlipidemic activity in po dosed Sprague-Dawley rat assessed as decrease in triglyceride level administered twice daily for 1 week measured 2 hrs post-last dose by GPO-PAP analysis relative to control; type: functional; parameters: scale not given: the % may be the effect or the level left

IC50 [1] [nM] | SMILES | Activity [2] [%] | Activity [3] [%] | Activity [4] [%] | Activity [5] [%] | Activity [6] [%]
> 100 | COc1cc(OC)c2c(=O)[nH]c(-c3cc(OC)c(OC(=O)CC(=O)OC(C)(C)C(=O)O)c(OC)c3)nc2c1 | 37.34 | 21.58 | 50.36 | – | –
20.9 | COc1cc(OC)c2c(=O)[nH]c(-c3cc(OC)c(OC(=O)C(C)(C)Br)c(OC)c3)nc2c1 | 44.82 | 32.74 | 41.63 | – | –
39.6 | COc1cc(OC)c2c(=O)[nH]c(-c3cc(C)c(OC(=O)C(C)(C)Oc4ccc(Cl)cc4)c(C)c3)nc2c1 | 38.09 | 22.5 | 34.85 | – | –
53.8 | COc1cc(OC)c2c(=O)[nH]c(-c3cc(C)c(OC(=O)C(C)(C)Br)c(C)c3)nc2c1 | 34.85 | 19.33 | 36.21 | – | –
> 100 | COc1cc(OC)c2c(=O)[nH]c(-c3cc(C)c(OC(=O)CC(=O)OC(C)(C)C(=O)O)c(C)c3)nc2c1 | 21.67 | 16.46 | 48.59 | – | –
71 | COc1cc(OC)c2c(=O)[nH]c(-c3ccc(C(=O)OCCO)cc3)nc2c1 | 25.3 | 16.51 | 11.94 | – | –
9.7 | COc1cc(OC)c2c(=O)[nH]c(-c3cc(OC)c(OC(=O)C(C)(C)Oc4ccc(Cl)cc4)c(OC)c3)nc2c1 | 42.65 | 29.39 | 37.34 | – | –
27.5 | COc1cc(OC)c2c(=O)[nH]c(-c3cc(OC)c(OCCO)c(OC)c3)nc2c1 | 32.77 | 20.61 | 5.07 | – | –
– | COc1cc(OC)c2c(=O)[nH]c(-c3cc(C)c(OCCO)c(C)c3)nc2c1 [APABETALONE] | 38.91 | – | – | 23.84 | 3.13
– | CCOC(=O)C(C)(C)Oc1ccc(Cl)cc1 [CLOFIBRATE] | – | – | – | 5.92 | 41.35
– | Cc1ccc(C)c(OCCCC(C)(C)C(=O)O)c1 [GEMFIBROZIL] | – | – | – | 7.03 | 39.66
